US20260130933A1, “PHARMACEUTICAL COMPOSITION FOR PREVENTION OR TREATMENT OF NEPHROPATHY AND/OR DIABETES MELLITUS, COMPRISING ENAVOGLIFLOZIN” (DAEWOONG PHARMACEUTICAL CO., LTD., priority 2022, published 2026)

Assay: Example 3: phase 3 trial, enavogliflozin 0.3 mg vs dapagliflozin 10 mg once a day for 24 weeks added to metformin and gemigliptin in patients with type 2 diabetes (same endpoints, rescue drug)
Type: in vivo, human
Procedure: 1) when Metformin (≥1,000 mg/Day) was Administered at a Constant Dose for at Least 8 Weeks Prior to Pre-Visit (Pre-Screening) • Metformin (≥1,000 mg/day) and gemigliptin (50 mg/day) were co-administered during the 8-week stabilization period. […] 4) when Metformin (≥1,000 mg/Day) and Gemigliptin (50 mg/Day) were Co-Administered at Constant Doses for at Least 8 Weeks Prior to Pre-Visit (Prescreening) • Without a separate stabilization period, Pre-visit (pre-screening) was Visit 1 (screening).
Subjects who met the inclusion/exclusion criteria continued to receive metformin and gemigliptin while receiving a placebo of the clinical trial drug in a single-blind (subject-blinded) state for a 2-week run-in period.
Here, the randomized subjects were stratified according to the administration therapy (co-administration with two or less agents (one or two agents) or three or more agents) of a conventional hypoglycemic agent (before washout of another hypoglycemic agent) within 24 weeks prior to obtaining written informed consent and by an HbA1c value (<8% or ≥8%) at Visit 1 (screening) measured in the central laboratory.
The randomized subjects were administered two tablets of the clinical trial drug corresponding to each administration group once a day, and then visited the institution at weeks 6, 12, 18, and 24 during the 24-week administration period to conduct efficacy and safety assessments. In addition, during the clinical trial period, they were instructed to exercise regularly and control their diet without changing their daily life patterns.
• 1) Change in HbA1c at week 24 after administration of clinical trial drug compared to Visit 2 (randomization)
• 1) Change in HbA1c at each time point of weeks 6, 12, and 18 after administration of clinical trial drug compared to Visit 2 (randomization) • 2) Change in FPG at each time point of weeks 6, 12, 18, and 24 after administration of clinical trial drug compared to Visit 2 (randomization) • 3) Proportion of subjects achieving HbA1c<7% at each time point of weeks 6, 12, 18, and 24 after administration of clinical trial drug • 4) Proportion of subjects achieving HbA1c<6.5% at each time point of weeks 6, 12, 18, and 24 after administration of clinical trial drug • 5) Proportion of subjects achieving therapeutic response (HbA1c change (HbA1c at Visit 2—HbA1c at each evaluation time point)>0.5% or HbA1c<7% at each evaluation time point compared to Visit 2 (randomization)) at each time point of weeks 6, 12, 18, and 24 after administration of clinical trial drug • 6) Proportion of subjects achieving therapeutic response (HbA1c change (HbA1c at Visit 2—HbA1c at each evaluation time point)>0.7% or HbA1c<7% at each evaluation time point compared to Visit 2 (randomization)) at each time point of weeks 6, 12, 18, and 24 after administration of clinical trial drug • 7) Proportion of subjects achieving therapeutic response (HbA1c change (HbA1c at Visit 2—HbA1c at each evaluation time point)>1% or HbA1c<7% at each evaluation time point compared to Visit 2 (randomization)) at each time point of weeks 6, 12, 18, and 24 after administration of clinical trial drug

[1] = week 6, modified per-protocol set 1, enavogliflozin 0.3 mg vs dapagliflozin 10 mg
[2] = week 6, modified per-protocol set 1, enavogliflozin 0.3 mg, dapagliflozin 10 mg
[3] = week 6, modified per-protocol set 2
[4] = week 6, modified per-protocol set 2, enavogliflozin 0.3 mg, dapagliflozin 10 mg
[5] = week 6, per-protocol set, enavogliflozin 0.3 mg vs dapagliflozin 10 mg
[6] = week 6, per-protocol set, enavogliflozin 0.3 mg, dapagliflozin 10 mg

## OC[C@H]1O[C@@H](c2cc(Cc3ccc(C4CC4)cc3)c(Cl)c3c2CCO3)[C@H](O)[C@@H](O)[C@@H]1O [Enavogliflozin, (2S,3R,4R,5S,6R)-2-(7-chloro-6 (4-cyclopropylbenzyl)-2,3-dihydrobenzofuran-4-yl)-6-(hydroxymethyl)tetrahydro-2H-pyran-3,4,5-triol]
24 weeks, vs dapagliflozin
  Incidence of adverse events or adverse drug reactions between groups: no statistically significant differences
Baseline, PPS
  HbA1c, Mean (SD): 7.79%
  HbA1c, Median: 7.60%
HbA1c change at week 24, vs dapagliflozin
  Non-inferiority (margin 0.35): not inferior
Week 24, PPS
  HbA1c change from baseline, ANCOVA LS mean (SE): −0.92 % p
  HbA1c change from baseline, Mean (SD): −0.93 % p
  HbA1c change from baseline, Median: −0.83 % p
  HbA1c, Mean (SD): 6.86%
  HbA1c, Median: 6.76%
Week 24, PPS, enavogliflozin minus dapagliflozin
  HbA1c change from baseline, LS mean difference: −0.06 % p
Week 24, PPS, enavogliflozin vs dapagliflozin
  Non-inferiority (UCI < 0.35%) in HbA1c change: Yes
Week 6
  FPG change from baseline, LS mean (SE): −25.96(1.42) mg/dL
  HDL-C change from baseline, LS mean (SE): 1.96(0.57) mg/dL
  HOMA-IR change from baseline, LS mean (SE): −0.94(0.15)
  HOMA-β change from baseline, LS mean (SE): 8.13(3.08)
  HbA1c change from baseline, LS mean (SE): −0.73(0.03) % p
  LDL-C change from baseline, LS mean (SE): 2.49(1.81) mg/dL
  UACR change from baseline, LS mean (SE): −8.76(3.43) g/kg
  UGCR change from baseline, LS mean (SE): 58.10(2.18) mg/mg
  adiponectin change from baseline, LS mean (SE): −0.10 (0.34) μg/mL
  body weight change from baseline, LS mean (SE): −1.92(0.17) kg
  diastolic blood pressure change from baseline, LS mean (SE): −2.04(0.70) mmHg
  fasting C-peptide change from baseline, LS mean (SE): −0.05(0.02) ng/mL
  leptin change from baseline, LS mean (SE): −1.83(0.45) ng/mL
  systolic blood pressure change from baseline, LS mean (SE): −2.76(0.90) mmHg
  total cholesterol change from baseline, LS mean (SE): 5.07 (1.97) mg/dL
  triglyceride change from baseline, LS mean (SE): −6.85(4.47) mg/dL
Week 6, vs dapagliflozin
  FPG change from baseline, LS mean difference: -3.24 mg/dL
  HDL-C change from baseline, LS mean difference: 0.83 mg/dL
  HOMA-IR change from baseline, LS mean difference: 0.05
  HOMA-β change from baseline, LS mean difference: 4.93
  HbA1c change from baseline, LS mean difference: −0.03 % p
  LDL-C change from baseline, LS mean difference: 0.57 mg/dL
  Odds ratio for achieving HbA1c<6.5%: 0.65
  Odds ratio for achieving HbA1c<7%: 1.22
  Odds ratio, therapeutic response (HbA1c change >0.5% or HbA1c<7%): 1.52
  Odds ratio, therapeutic response (HbA1c change >0.7% or HbA1c<7%): 1.16
  Odds ratio, therapeutic response (HbA1c change >1% or HbA1c<7%): 1.38
  UACR change from baseline, LS mean difference: 6.09 g/kg
  UGCR change from baseline, LS mean difference: 12.35 mg/mg
  adiponectin change from baseline, LS mean difference: -0.47 µg/mL
  body weight change from baseline, LS mean difference: -0.13 kg
  diastolic blood pressure change from baseline, LS mean difference: −0.16 mmHg
  fasting C-peptide change from baseline, LS mean difference: -0.01 ng/mL
  leptin change from baseline, LS mean difference: 0.20 ng/mL
  systolic blood pressure change from baseline, LS mean difference: 0.73 mmHg
  total cholesterol change from baseline, LS mean difference: 2.45 mg/dL
  triglyceride change from baseline, LS mean difference: -1.46 mg/dL
[1]
  Change from baseline in HDL-C, ANCOVA LS mean difference: 0.83 mg/dL
  Change from baseline in LDL-C, ANCOVA LS mean difference: 0.57 mg/dL
  Change from baseline in total cholesterol, ANCOVA LS mean difference: 2.45 mg/dL
  Change from baseline in triglycerides, ANCOVA LS mean difference: -1.46 mg/dL
[2]
  Change from baseline in HDL-C, ANCOVA LS mean: 1.96 mg/dL
  Change from baseline in HDL-C, Mean: 1.90 mg/dL
  Change from baseline in HDL-C, Median: 2.00 mg/dL
  Change from baseline in LDL-C, ANCOVA LS mean: 2.49 mg/dL
  Change from baseline in LDL-C, Mean: 2.42 mg/dL
  Change from baseline in LDL-C, Median: -1.00 mg/dL
  Change from baseline in total cholesterol, ANCOVA LS mean: 5.07 mg/dL
  Change from baseline in total cholesterol, Mean: 4.65 mg/dL
  Change from baseline in total cholesterol, Median: 3.00 mg/dL
  Change from baseline in triglycerides, ANCOVA LS mean: -6.85 mg/dL
  Change from baseline in triglycerides, Mean: -4.37 mg/dL
  Change from baseline in triglycerides, Median: -1.00 mg/dL
  Fasting HDL-C, Mean: 47.99 mg/dL
  Fasting HDL-C, Median: 46.00 mg/dL
  Fasting LDL-C, Mean: 73.35 mg/dL
  Fasting LDL-C, Median: 68.00 mg/dL
  Fasting total cholesterol, Mean: 138.43 mg/dL
  Fasting triglycerides, Mean: 112.71 mg/dL
  Fasting triglycerides, Median: 101.00 mg/dL
  fasting Total cholesterol, Median: 134.00 mg/dL
[3]
  Change from baseline in diastolic blood pressure, ANCOVA LS mean: −2.04 mmHg
  Change from baseline in diastolic blood pressure, LS mean difference (enavogliflozin − dapagliflozin): −0.16 mmHg
  Change from baseline in diastolic blood pressure, Mean: −2.76 mmHg
  Change from baseline in diastolic blood pressure, Median: −3.00 mmHg
  Diastolic blood pressure, Mean: 73.72 mmHg
  Diastolic blood pressure, Median: 74.00 mmHg
Week 6, modified per-protocol set 2, enavogliflozin 0.3 mg vs dapagliflozin 10 mg
  Change from baseline in systolic blood pressure, ANCOVA LS mean difference: 0.73 mmHg
[4]
  Change from baseline in systolic blood pressure, ANCOVA LS mean: −2.76 mmHg
  Change from baseline in systolic blood pressure, Mean: −3.67 mmHg
  Change from baseline in systolic blood pressure, Median: −3.00 mmHg
  Systolic blood pressure, Mean: 124.04 mmHg
  Systolic blood pressure, Median: 123.00 mmHg
Week 6, per-protocol set
  Adiponectin, Mean: 6.20 µg/mL
  Adiponectin, Median: 5.40 µg/mL
  Change from baseline in HOMA-IR, ANCOVA LS mean: −0.94
  Change from baseline in HOMA-IR, LS mean difference (enavogliflozin − dapagliflozin): 0.05
  Change from baseline in HOMA-IR, Mean: −0.90
  Change from baseline in HOMA-IR, Median: −0.68
  Change from baseline in HOMA-β, ANCOVA LS mean: 8.13
  Change from baseline in HOMA-β, LS mean difference (enavogliflozin − dapagliflozin): 4.93
  Change from baseline in HOMA-β, Mean: 8.74
  Change from baseline in HOMA-β, Median: 4.35
  Change from baseline in UACR, ANCOVA LS mean: -8.76 g/kg
  Change from baseline in UACR, LS mean difference (enavogliflozin − dapagliflozin): 6.09 g/kg
  Change from baseline in UACR, Mean: -11.43 g/kg
  Change from baseline in UACR, Median: -0.50 g/kg
  Change from baseline in UGCR, ANCOVA LS mean: 58.10 mg/mg
  Change from baseline in UGCR, LS mean difference (enavogliflozin − dapagliflozin): 12.35 mg/mg
  Change from baseline in UGCR, Mean: 56.38 mg/mg
  Change from baseline in UGCR, Median: 54.10 mg/mg
  Change from baseline in adiponectin, ANCOVA LS mean: -0.10 µg/mL
  Change from baseline in adiponectin, LS mean difference (enavogliflozin − dapagliflozin): -0.47 µg/mL
  Change from baseline in adiponectin, Mean: -0.08 µg/mL
  Change from baseline in adiponectin, Median: 0.50 µg/mL
  Change from baseline in leptin, ANCOVA LS mean: -1.83 ng/mL
  Change from baseline in leptin, LS mean difference (enavogliflozin − dapagliflozin): 0.20 ng/mL
  Change from baseline in leptin, Mean: -1.75 ng/mL
  Change from baseline in leptin, Median: -0.94 ng/mL
  HOMA-IR (insulin resistance), Mean: 2.00
  HOMA-IR (insulin resistance), Median: 1.54
  HOMA-β (beta-cell function), Mean: 51.08
  HOMA-β (beta-cell function), Median: 38.70
  Leptin, Mean: 8.88 ng/mL
  Leptin, Median: 6.26 ng/mL
  UACR, Mean: 36.67 g/kg
  UACR, Median: 14.80 g/kg
  UGCR, Mean: 57.09 mg/mg
  UGCR, Median: 54.57 mg/mg
[5]
  Achieving HbA1c target of <6.5%, odds ratio (logistic regression model): 0.65
  Achieving HbA1c target of <7%, odds ratio (logistic regression model): 1.22
  Change from baseline in FPG, ANCOVA LS mean difference: -3.24 mg/dL
  Change from baseline in HbA1c, ANCOVA LS mean difference: −0.03 % p
  Change from baseline in body weight, ANCOVA LS mean difference: -0.13 kg
  Change from baseline in fasting C-peptide, ANCOVA LS mean difference: -0.01 ng/mL
  Therapeutic glycemic response 1, odds ratio (logistic regression model): 1.52
  Therapeutic glycemic response 2, odds ratio (logistic regression model): 1.16
  Therapeutic glycemic response 3, odds ratio (logistic regression model): 1.38
[6]
  Body weight, Mean: 67.13 kg
  Change from baseline in FPG, ANCOVA LS mean: -25.96 mg/dL
  Change from baseline in FPG, Mean: -25.72 mg/dL
  Change from baseline in FPG, Median: -24.50 mg/dL
  Change from baseline in HbA1c, ANCOVA LS mean: −0.73 % p
  Change from baseline in HbA1c, Mean: −0.74 % p
  Change from baseline in HbA1c, Median: −0.65 % p
  Change from baseline in body weight, ANCOVA LS mean: -1.92 kg
  Change from baseline in body weight, Mean: -1.87 kg
  Change from baseline in body weight, Median: -1.90 kg
  Change from baseline in fasting C-peptide, ANCOVA LS mean: -0.05 ng/mL
  Change from baseline in fasting C-peptide, Mean: -0.06 ng/mL
  Change from baseline in fasting C-peptide, Median: -0.07 ng/mL
  FPG, Mean: 114.21 mg/dL
  FPG, Median: 113.00 mg/dL
